Measurements taken from PubChem BioAssay AID1963865 (Molecular Pharmacology Branch, DTP, NCI, 2024).

Tested on: KRAS PDC multicell spheroid viability
Test: Anticancer human tumor 825966-067-R-J1-PDC patient-derived colon carcinoma cell line growth inhibition [KRAS2]
Details: for IC50: curve of first compound; for viability, T/C: stronger effect = lower value
Source text: Multicellular complex tumor spheroid response to RAS pathway inhibitors in combination with a targeted agents in patient-derived cell lines with oncogenic KRAS variants from multiple cancer types
A high-throughput screen of multi-cell type tumor spheroids was designed to identify active combinations of targeted small molecules and KRAS pathway inhibitors. Complex spheroids include a stromal component modeled by human endothelial cells (HUVEC) and fibroblasts modeled by human mesenchymal stem cells (MSCs). The concentration ranges selected for each drug and investigational agent were based upon clinically achievable concentrations if the clinical Cmax of the agent was known.
Compounds. The drugs and investigational agents: BI-3406 (NSC825286), BAY-293 (NSC824723), batoprotafib (TNO155; NSC825523), sotorasib (AMG 510; NSC818433), MRTX1257 (NSC819558), elimusertib (BAY 1895344; NSC800525), molibresib (GSK525762; NSC774829), temuterkib (LY3214996; NSC803410), venetoclax (NSC766270), alisertib (NSC759677), olaparib (NSC753686), talazoparib (NSC767125), erdafitinib (NSC781556), ipatasertib (NSC767898), cabozantinib (NSC761068), nintedanib (NSC756659), abemaciclib (NSC768073), docetaxel (NSC628503), trametinib (NSC758246), and sapanisertib (NSC764658) were obtained from the National Cancer Institute (NCI) Developmental Therapeutics Program Chemical Repository. The FDA-approved anticancer drug set is available from the Developmental Therapeutics Program. […] The stock solutions were prepared in dimethyl sulfoxide (DMSO, Sigma-Aldrich, St. Louis, MO, cat. D2650) at 800-fold the tested concentration and stored at -70 degrees C prior to their use. All drugs and investigational agents were tested over a range starting from a high concentration at or near the clinical Cmax and decreasing in half-log increments. If the clinical Cmax for an agent had not been determined, the highest concentration tested was 10 microM.
Cell Culture. All cells were maintained in an incubator at 37 degrees C and 5% CO2 with 95% humidity. The PDC lines were cultured according to standard operating procedures established by the NCI PDMR (https://pdmr.cancer.gov/sops/default.htm). Briefly, all PDCs were thawed and cultured in Matrigel-coated flasks prepared with a working solution of 1X Ham's F-12 nutrient mix, without supplementation (Invitrogen, Waltham, MA, cat. 11765054), 100 U/mL penicillin-streptomycin (Invitrogen, cat. 15140122), and 2.5% Matrigel (Corning Inc., Corning, NY, cat. 354248) for the first three passages. All PDCs were cultured in complete DMEM/F-12 media containing advanced DMEM/F-12 (Invitrogen, cat. 12634028), 4.9% defined fetal bovine serum, heat inactivated (HyClone Laboratories Inc., Logan, UT, cat. SH30070.03HI), 389 ng/mL hydrocortisone (Sigma-Aldrich, cat. H4001), 9.7 ng/mL human EGF recombinant protein (Invitrogen, cat. PHG0313), 23.4 microg/mL adenine (Sigma-Aldrich, cat. A2786), 97.3 U/mL penicillin-streptomycin (Invitrogen, cat. 15140122), 1.9 mM L-glutamine (Invitrogen, cat. 25030081), and 9.7 microM Y-27632 dihydrochloride (Tocris Bioscience, Bristol, United Kingdom, cat. 1254). The PDCs were cultured in complete DMEM/F12 media without 9.7 microM Y-27632 dihydrochloride for at least two passages prior to the screen. The established cell line HOP-62 was cultured in RPMI 1640 medium, HEPES (Invitrogen, cat. 22400105) with 10% defined fetal bovine serum (HyClone Laboratories Inc., cat. SH30070.03) and 2 mM L-glutamine (Invitrogen, cat. 25030081). The pooled donor HUVEC were cultured in endothelial cell growth medium 2 (PromoCell, Heidelberg, Germany, cat. C-22011) and the hMSC were cultured in mesenchymal stem cell growth medium 2 (PromoCell, cat. C-28009). For all experiments, HUVEC and hMSC were used at passages </=5, while the malignant cell lines were used at passages </=15. […]

[1] = second compound 0.1 µM, first compound 0.01 µM
[2] = second compound 0.1 µM, first compound 0.0316 µM
[3] = second compound 0.1 µM, first compound 0.1 µM
[4] = second compound 0.1 µM, first compound 0.316 µM
[5] = second compound 0.1 µM, first compound 1 µM
[6] = second compound 0.1 µM, first compound 3.16 µM
[7] = second compound 0.316 µM, first compound 0.01 µM
[8] = second compound 0.316 µM, first compound 0.0316 µM
[9] = second compound 0.316 µM, first compound 0.1 µM
[10] = second compound 0.316 µM, first compound 0.316 µM
[11] = second compound 0.316 µM, first compound 1 µM
[12] = second compound 0.316 µM, first compound 3.16 µM
[13] = second compound 1 µM, first compound 0.01 µM
[14] = second compound 1 µM, first compound 0.0316 µM
[15] = second compound 1 µM, first compound 0.1 µM
[16] = second compound 1 µM, first compound 0.316 µM
[17] = second compound 1 µM, first compound 1 µM
[18] = second compound 1 µM, first compound 3.16 µM
[19] = second compound 3.16 µM, first compound 0.01 µM
[20] = second compound 3.16 µM, first compound 0.0316 µM
[21] = second compound 3.16 µM, first compound 0.1 µM
[22] = second compound 3.16 µM, first compound 0.316 µM
[23] = second compound 3.16 µM, first compound 1 µM
[24] = second compound 3.16 µM, first compound 3.16 µM
[25] = second compound 10 µM, first compound 0.01 µM
[26] = second compound 10 µM, first compound 0.0316 µM
[27] = second compound 10 µM, first compound 0.1 µM
[28] = second compound 10 µM, first compound 0.316 µM
[29] = second compound 10 µM, first compound 1 µM
[30] = second compound 10 µM, first compound 3.16 µM
[31] = second compound 0.1 µM, first compound 10 µM
[32] = second compound 0.316 µM, first compound 10 µM
[33] = second compound 1 µM, first compound 10 µM
[34] = second compound 3.16 µM, first compound 10 µM
[35] = second compound 10 µM, first compound 10 µM
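Note: spheroids exposed to compounds for 7 days.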
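Throughout, for viability, T/C: 100% = DMSO vehicle control viability.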

SMILES | IC50 (second compound 0.1 µM) [nM] | IC50 (second compound 0.316 µM) [nM] | IC50 (second compound 1 µM) [nM] | IC50 (second compound 3.16 µM) [nM] | IC50 (second compound 10 µM) [nM] | viability, T/C [2] [%] | viability, T/C [3] [%] | viability, T/C [4] [%] | viability, T/C [5] [%] | viability, T/C [6] [%] | viability, T/C [8] [%] | viability, T/C [9] [%] | viability, T/C [10] [%] | viability, T/C [11] [%] | viability, T/C [14] [%] | viability, T/C [15] [%] | viability, T/C [20] [%] | viability, T/C [21] [%] | viability, T/C [26] [%] | viability, T/C [27] [%] | further results
CC(=O)OC12COC1CC(O)C1(C)C(=O)C(O)C3=C(C)C(OC(=O)C(O)C(NC(=O)OC(C)(C)C)c4ccccc4)CC(O)(C(OC(=O)c4ccccc4)C21)C3(C)C (stereo not given) + C=CC(=O)N1CCN(c2nc(=O)n(-c3c(C)ccnc3C(C)C)c3nc(-c4c(O)cccc4F)c(F)cc23)C(C)C1 | < 10 | < 10 | < 10 | < 10 | < 10 | 30.6 | 20.5 | 20.9 | 22.8 | 31.5 | 24 | 24.6 | 26 | 28.5 | 34.3 | 25.9 | 27.3 | 25.5 | 34.9 | 24.1 | viability, T/C [1]: 33.9%; viability, T/C [7]: 26.8%; viability, T/C [12]: 29.7%; viability, T/C [13]: 27.9%; viability, T/C [16]: 23.9%; viability, T/C [17]: 23.1%; viability, T/C [18]: 22.5%; viability, T/C [19]: 38.3%; viability, T/C [22]: 23.2%; viability, T/C [23]: 26.9%; viability, T/C [24]: 39.2%; viability, T/C [25]: 30.8%; viability, T/C [28]: 26.7%; viability, T/C [29]: 17.1%; viability, T/C [30]: 24.5%
CN(C)C/C=C/C(=O)Nc1cc2c(Nc3ccc(F)c(Cl)c3)ncnc2cc1O[C@H]1CCOC1 + C=CC(=O)N1CCN(c2nc(=O)n(-c3c(C)ccnc3C(C)C)c3nc(-c4c(O)cccc4F)c(F)cc23)C(C)C1 | > 100 | > 100 | > 100 | > 100 | > 100 | 94.5 | 106 |  |  |  | 103 | 117 |  |  | 99.3 | 107 | 89 | 103 | 83.5 | 84.1 | viability, T/C (second compound 0.1 µM, first compound 0.000316 µM): 104%; viability, T/C (second compound 0.1 µM, first compound 0.001 µM): 114%; viability, T/C (second compound 0.1 µM, first compound 0.00316 µM): 110%; viability, T/C [1]: 101%; viability, T/C (second compound 0.316 µM, first compound 0.000316 µM): 97.8%; viability, T/C (second compound 0.316 µM, first compound 0.001 µM): 106%; viability, T/C (second compound 0.316 µM, first compound 0.00316 µM): 91.8%; viability, T/C [7]: 101%; viability, T/C (second compound 1 µM, first compound 0.000316 µM): 110%; viability, T/C (second compound 1 µM, first compound 0.001 µM): 101%; viability, T/C (second compound 1 µM, first compound 0.00316 µM): 91.2%; viability, T/C [13]: 112%; viability, T/C (second compound 3.16 µM, first compound 0.000316 µM): 98.8%; viability, T/C (second compound 3.16 µM, first compound 0.001 µM): 64.3%; viability, T/C (second compound 3.16 µM, first compound 0.00316 µM): 93.2%; viability, T/C [19]: 107%; viability, T/C (second compound 10 µM, first compound 0.000316 µM): 86.4%; viability, T/C (second compound 10 µM, first compound 0.001 µM): 73.5%; viability, T/C (second compound 10 µM, first compound 0.00316 µM): 94.9%; viability, T/C [25]: 86.4%
COC(=O)c1ccc2c(C(=Nc3ccc(N(C)C(=O)CN4CCN(C)CC4)cc3)c3ccccc3)c(O)[nH]c2c1 + C=CC(=O)N1CCN(c2nc(=O)n(-c3c(C)ccnc3C(C)C)c3nc(-c4c(O)cccc4F)c(F)cc23)C(C)C1 | 633 | 738 | 513 | 472 | 444 | 83.3 | 88.2 | 72.2 | 35.4 | 0.37 | 76.2 | 82.6 | 77.7 | 40 | 77.3 | 75.7 | 83 | 76.4 | 71.2 | 67 | viability, T/C [31]: 0.76%; viability, T/C [12]: 0.17%; viability, T/C [32]: 0.12%; viability, T/C [16]: 85.6%; viability, T/C [17]: 9.2%; viability, T/C [18]: 0.13%; viability, T/C [33]: 0.13%; viability, T/C [22]: 71.6%; viability, T/C [23]: 9.78%; viability, T/C [24]: 1.23%; viability, T/C [34]: 0.13%; viability, T/C [28]: 68.7%; viability, T/C [29]: 5.2%; viability, T/C [30]: 0.99%; viability, T/C [35]: 0.17%
O=C(c1cc(Cc2n[nH]c(=O)c3ccccc23)ccc1F)N1CCN(C(=O)C2CC2)CC1 + C=CC(=O)N1CCN(c2nc(=O)n(-c3c(C)ccnc3C(C)C)c3nc(-c4c(O)cccc4F)c(F)cc23)C(C)C1 | > 10000 | > 10000 | > 10000 | > 10000 | > 10000 | 97.5 | 89.9 | 107 | 71.9 | 71.1 | 90.2 | 96.8 | 77.2 | 81.9 | 100 | 84.3 | 68.3 | 90.3 | 96.4 | 82.3 | viability, T/C [31]: 77.9%; viability, T/C [12]: 65.7%; viability, T/C [32]: 80.9%; viability, T/C [16]: 77.8%; viability, T/C [17]: 62.8%; viability, T/C [18]: 70.8%; viability, T/C [33]: 88.1%; viability, T/C [22]: 78.4%; viability, T/C [23]: 75.8%; viability, T/C [24]: 73.3%; viability, T/C [34]: 70.4%; viability, T/C [28]: 90.8%; viability, T/C [29]: 72%; viability, T/C [30]: 66.5%; viability, T/C [35]: 91.7%
